What all share (type): cell-based
One test deals with HIV-1NL4-3 Wild Type. The experiment in a line: Luminescence reduction assay, MT4 cells infected with HIV-1NL4-3 luciferase reporter virus, wild type. To be noted: Human immunodeficiency virus 1, MT4, MT4 cells, 2% FCS. In outline:
(§1)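 MT4 cells pellet-infected 2 h at 37° C with HIV-1NL4-3 reporter virus (lu164 replacing nef; wild type or site-directed RT mutants), washed, then incubated with compound dilutions (1% DMSO, 2% or 10% FCS) for 5 days. Secreted luciferase read with coelenterazine buffer; EC50 = concentration halving RLU versus untreated infected cells.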

The next test concerns HIV-1LAI Wild Type. Nature of the test: AlamarBlue viability assay, HIV-1LAI-infected MT4 cells. To be noted: Human immunodeficiency virus 1, MT4, MT4 cells, 10% FCS. In outline: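 MT4 cells infected with HIV-1LAI (MOI 0.01, supernatant infection) cultured 5 days at 37 °C with compounds in RPMI with 2% or 10% FCS, 1% DMSO final. AlamarBlue fluorescence after 3 h; EC50 as 50% protection relative to uninfected cells, CC50 from high-concentration cytotoxicity.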

For another test, the system named is HIV-1NL4-3 K103N-Y181C. Nature of the test: Luminescence reduction assay, MT4 cells infected with HIV-1NL4-3 luciferase reporter virus, RT mutant K103N-Y181C. To be noted: Human immunodeficiency virus 1, MT4, read-out: EC50 (μM) MT4 Cells HIV-1NL4-3 K103N-Y181C 2% FCS, MT4 cells, HIV-1NL4-3 K103N-Y181C, 2% FCS. A digest of the protocol:
as §1

A value given as a limit tells only on which side of the number the result lay.

In the case of `O=C1CN(C(=O)c2cc(-c3cc(Br)cc(OC(F)(F)F)c3)n(-c3cccnc3)n2)CCN1` [Example 29, 4-({5-[3-Bromo-5-(trifluoromethoxy)phenyl]-1-(pyridin-3-yl)-1H-pyrazol-3-yl}carbonyl)piperazin-2-one], the EC50 in the test on HIV-1NL4-3 Wild Type came out at 0.012 µM; in the test with HIV-1LAI Wild Type, 0.097 µM; with HIV-1NL4-3 K103N-Y181C, 0.032 µM.
For `O=C(c1cc(-c2cc(Br)cc(OC(F)(F)F)c2)n(-c2cccnc2)n1)N1CCSC1` [Example 30, (5-[3-Bromo-5-(trifluoromethoxy)phenyl]-1-(pyridin-3-yl)-1H-pyrazol-3-yl) (1,3-thiazolidin-3-yl)methanone], in that order: 0.033 µM, 0.794 µM and 0.181 µM.
In the case of `O=C(c1cc(-c2cc(Br)cc(OC(F)(F)F)c2)n(-c2cccnc2)n1)N1CCS(=O)(=O)C1` [Example 32, {5-[3-Bromo-5-(trifluoromethoxy)phenyl]-1-(pyridin-3-yl)-1H-pyrazol-3-yl}(1,1-dioxido-1,3-thiazolidin-3-yl)methanone], the EC50 in the test on HIV-1NL4-3 Wild Type was found to be 0.007 µM; in the test on HIV-1LAI Wild Type it was 0.083 µM; in the test with HIV-1NL4-3 K103N-Y181C it was 0.014 µM.
For `O=C(c1cc(-c2cc(Br)cc(OC(F)(F)F)c2)n(-c2ccc[n+]([O-])c2)n1)N1CCS(=O)(=O)C1` [Example 33, {5-[3-Bromo-5-(trifluoromethoxy)phenyl]-1-(1-oxidopyridin-3-yl)-1H-pyrazol-3-yl}(1,1-dioxido-1,3-thiazolidin-3-yl)methanone], in that order: 0.069 µM, 1.02 µM and 0.299 µM.
Take `O=C1CN(C(=O)c2cc(-c3cc(Br)cc(OC(F)(F)F)c3)n(-c3ccc(Cl)nc3)n2)CN1` [Example 34, 1-({5-[3-Bromo-5-(trifluoromethoxy)phenyl]-1-(6-chloropyridin-3-yl)-1H-pyrazol-3-yl}carbonyl)imidazolidin-4-one]: the results for the concentration for a half-maximal effect (EC50) in the test on HIV-1NL4-3 Wild Type, in the test on HIV-1LAI Wild Type and in the test on HIV-1NL4-3 K103N-Y181C were 0.01 µM, 0.098 µM and 0.003 µM, respectively.
On to `O=C1CN(C(=O)c2cc(-c3cc(Br)cc(OC(F)(F)F)c3)n(-c3ccc(Cl)nc3)n2)CCN1` [Example 35, 4-({5-[3-Bromo-5-(trifluoromethoxy)phenyl]-1-(6-chloropyridin-3-yl)-1H-pyrazol-3-yl}carbonyl)piperazin-2-one], for which the EC50 in the test on HIV-1NL4-3 Wild Type was 0.042 µM; in the test with HIV-1LAI Wild Type it was 0.232 µM; with HIV-1NL4-3 K103N-Y181C it was 0.01 µM.
Regarding `O=C(c1cc(-c2cc(Br)cc(OC(F)(F)F)c2)n(-c2ccc(Cl)nc2)n1)N1CCSC1` [Example 36, {5-[3-Bromo-5-(trifluoromethoxy)phenyl]-1-(6-chloropyridin-3-yl)-1H-pyrazol-3-yl}(1,3-thiazolidin-3-yl)methanone], the results for the EC50 in the test with HIV-1NL4-3 Wild Type, in the test with HIV-1LAI Wild Type and with HIV-1NL4-3 K103N-Y181C were 0.149 µM, 2.37 µM and 0.08 µM, respectively.
For `O=C(c1cc(-c2cc(Br)cc(OC(F)(F)F)c2)n(-c2ccc(Cl)nc2)n1)N1CCS(=O)(=O)C1` [Example 38, {5-[3-Bromo-5-(trifluoromethoxy)phenyl]-1-(6-chloropyridin-3-yl)-1H-pyrazol-3-yl}(1,1-dioxido-1,3-thiazolidin-3-yl)methanone], in that order: 0.023 µM, 1.22 µM and 0.007 µM.
The corresponding values for `O=C1CN(C(=O)c2cc(-c3cc(Br)cc(OC(F)(F)F)c3)n(-c3ccc(F)nc3)n2)CN1` [Example 39, 1-({5-[3-Bromo-5-(trifluoromethoxy)phenyl]-1-(6-fluoropyridin-3-yl)-1H-pyrazol-3-yl}carbonyl)imidazolidin-4-one] are 0.009 µM, 0.062 µM and 0.007 µM.
The corresponding values for `O=C1CN(C(=O)c2cc(-c3cc(Br)cc(OC(F)(F)F)c3)n(-c3ccc(F)nc3)n2)CCN1` [Example 40, 4-({5-[3-Bromo-5-(trifluoromethoxy)phenyl]-1-(6-fluoropyridin-3-yl)-1H-pyrazol-3-yl}carbonyl)piperazin-2-one] are 0.013 µM, 0.213 µM and 0.044 µM.
As to `O=C(c1cc(-c2cc(Br)cc(OC(F)(F)F)c2)n(-c2ccc(F)nc2)n1)N1CCSC1` [Example 41, {5-[3-Bromo-5-(trifluoromethoxy)phenyl]-1-(6-fluoropyridin-3-yl)-1H-pyrazol-3-yl}(1,3-thiazolidin-3-yl)methanone], the half-maximal effective concentration (EC50) turned out to be 0.042 µM in the test on HIV-1NL4-3 Wild Type, 0.991 µM with HIV-1LAI Wild Type and 0.087 µM in the test on HIV-1NL4-3 K103N-Y181C.
The corresponding values for `O=C1CN(C(=O)c2cc(-c3cc(Br)cc(OC(F)(F)F)c3)n(-c3cncc(Cl)c3)n2)CN1` [Example 42, 1-({5-[3-Bromo-5-(trifluoromethoxy)phenyl]-1-(5-chloropyridin-3-yl)-1H-pyrazol-3-yl}carbonyl)imidazolidin-4-one] are 0.018 µM, 0.247 µM and 0.028 µM.
The corresponding values for `O=C1CN(C(=O)c2cc(-c3cc(Br)cc(OC(F)(F)F)c3)n(-c3cncc(Cl)c3)n2)CCN1` [Example 43, 4-({5-[3-Bromo-5-(trifluoromethoxy)phenyl]-1-(5-chloropyridin-3-yl)-1H-pyrazol-3-yl}carbonyl)piperazin-2-one] are 0.103 µM, 0.751 µM and 0.529 µM.
The corresponding values for `O=C1CN(C(=O)c2cc(-c3cc(Br)cc(OC(F)(F)F)c3)n(-c3cncc(F)c3)n2)CN1` [Example 44, 1-({5-[3-Bromo-5-(trifluoromethoxy)phenyl]-1-(5-fluoropyridin-3-yl)-1H-pyrazol-3-yl}carbonyl)imidazolidin-4-one] are 0.018 µM, 0.274 µM and 0.02 µM.
For the compound `O=C1CN(C(=O)c2cc(-c3cc(Br)cc(OC(F)(F)F)c3)n(-c3cncc(F)c3)n2)CCN1` [Example 45, 4-({5-[3-Bromo-5-(trifluoromethoxy)phenyl]-1-(5-fluoropyridin-3-yl)-1H-pyrazol-3-yl}carbonyl)piperazin-2-one], the results for the EC50 in the test on HIV-1NL4-3 Wild Type, with HIV-1LAI Wild Type and in the test on HIV-1NL4-3 K103N-Y181C were 0.095 µM, 0.55 µM and 0.232 µM, respectively.
Take `Cc1ccc(-n2nc(C(=O)N3CNC(=O)C3)cc2-c2cc(Br)cc(OC(F)(F)F)c2)cn1` [Example 46, 1-({5-[3-Bromo-5-(trifluoromethoxy)phenyl]-1-(6-methylpyridin-3-yl)-1H-pyrazol-3-yl}carbonyl)imidazolidin-4-one]: the EC50 amounted to 0.007 µM in the test with HIV-1NL4-3 Wild Type, 0.097 µM in the test on HIV-1LAI Wild Type and 0.007 µM with HIV-1NL4-3 K103N-Y181C.
Take `O=C1CN(C(=O)c2cc(-c3cc(Br)cc(OC(F)(F)F)c3)n(-c3ccnc(Cl)c3)n2)CN1` [Example 48, 1-({5-[3-Bromo-5-(trifluoromethoxy)phenyl]-1-(2-chloropyridin-4-yl)-1H-pyrazol-3-yl}carbonyl)imidazolidin-4-one]: the EC50 amounted to 0.01 µM in the test with HIV-1NL4-3 Wild Type, 0.111 µM in the test with HIV-1LAI Wild Type and 0.007 µM with HIV-1NL4-3 K103N-Y181C.
The corresponding values for `O=C1CN(C(=O)c2cc(-c3cc(Br)cc(OC(F)(F)F)c3)n(-c3ccnc(C(F)(F)F)c3)n2)CN1` [Example 50, 1-({5-[3-Bromo-5-(trifluoromethoxy)phenyl]-1-[2-(trifluoromethyl)pyridin-4-yl]-1H-pyrazol-3-yl}carbonyl)imidazolidin-4-one] are 0.102 µM, 1.86 µM and 0.167 µM.
For `O=C(c1cc(-c2cc(Br)cc(OC(F)(F)F)c2)n(-c2ccnc(C(F)(F)F)c2)n1)N1CC[S+]([O-])C1` (stereo not drawn) [Example 51, {5-[3-Bromo-5-(trifluoromethoxy)phenyl]-1-[2-(trifluoromethyl)pyridin-4-yl]-1H-pyrazol-3-yl}(1-oxido-1,3-thiazolidin-3-yl)methanone], in that order: 0.249 µM, 1.93 µM and 1.05 µM.
The corresponding values for `O=C(c1cc(-c2cc(Br)cc(OC(F)(F)F)c2)n(-c2ccnc(C(F)(F)F)c2)n1)N1CCS(=O)(=O)C1` [Example 52, {5-[3-Bromo-5-(trifluoromethoxy)phenyl]-1-[2-(trifluoromethyl)pyridin-4-yl]-1H-pyrazol-3-yl}(1,1-dioxido-1,3-thiazolidin-3-yl)methanone] are 0.376 µM, above 3.3 µM and 0.74 µM.
Take `Cc1cc(-n2nc(C(=O)N3CNC(=O)C3)cc2-c2cc(Br)cc(OC(F)(F)F)c2)ccn1` [Example 53, 1-({5-[3-Bromo-5-(trifluoromethoxy)phenyl]-1-(2-methylpyridin-4-yl)-1H-pyrazol-3-yl}carbonyl)imidazolidin-4-one]: the concentration giving a half-maximal response (EC50) was found to be 0.023 µM in the test on HIV-1NL4-3 Wild Type, 0.302 µM with HIV-1LAI Wild Type and 0.008 µM with HIV-1NL4-3 K103N-Y181C.
The corresponding values for `Cc1cc(-n2nc(C(=O)N3CCNC(=O)C3)cc2-c2cc(Br)cc(OC(F)(F)F)c2)ccn1` [Example 54, 4-({5-[3-Bromo-5-(trifluoromethoxy)phenyl]-1-(2-methylpyridin-4-yl)-1H-pyrazol-3-yl}carbonyl)piperazin-2-one] are 0.323 µM, 1.68 µM and 0.387 µM.
For `COc1cc(-n2nc(C(=O)N3CNC(=O)C3)cc2-c2cc(Br)cc(OC(F)(F)F)c2)ccn1` [Example 55, 1-({5-[3-Bromo-5-(trifluoromethoxy)phenyl]-1-(2-methoxypyridin-4-yl)-1H-pyrazol-3-yl}carbonyl)imidazolidin-4-one], in that order: 0.003 µM, 0.104 µM and 0.01 µM.
